Reference: patent publication US10655126B2, “Methods and compositions to treat drug-induced diseases and conditions” (University of Vermont and State Agricultural College, priority 2015, dated 2020)

What was measured:
CoxIV = CoxIV level in human MCF7 cells, Western blot (control protein); assay type: cell-based; details: MCF7 cells transfected with h-siMCJ 5 nM, harvested after 30 h; FIG. 10
Description: (§1) A human siMCJ has been tested in a human MCF7 cell line in vitro. […] Transfection methods included transecting human MCF7 cells transfected with h-siMCJ (5 nM) and after 30 h cells were harvested and MCJ expression was examined by Western blot analysis using an anti-human MCJ antibody. CoxIV (mitochondrial protein) and GAPDH were also examined as controls.

MCJ [1] = assay: MCJ knockdown in human MCF7 cells, Western blot; assay type: cell-based; details: MCF7 cells transfected with h-siMCJ 5 nM, harvested after 30 h; FIG. 10
Description: as §1

[2] = cited from earlier work
MCJ [3] = assay: MCJ expression in liver in vivo by Western blot; design: species or system mouse
Description: Analysis for MCJ expression in liver by Western blot analysis was performed as previously described (REF) using a specific anti-MCJ antibody. Expression of GAPDH was used as a control. Band intensities were quantified using the ImageJ software and normalized to the control (GAPDH).
(§2) siMCJ oligos (double strand RNA oligos, see for example, SEQ ID NO: 22) containing the designed sequence were synthesized for in vivo studies (Ambion invivo siRNA). As a delivery system Invivofectamine 3.0 (Life Technology) was used because it is claimed to obtain high efficiency of in vivo delivery of siRNA into hepatocytes. Following the recommendation of the manufacturer, 1.7 mg/Kg was used in combination with invivofectamine 3.0. Preparation of siRNA with the Invivofectamine was performed as recommended by the manufacturer. Mice were administered with a single i.v. dose of siMCJ/invivofectamine in 150 μl.

wild-type mice = assay: Acetaminophen (APAP) mouse model of drug-induced liver injury: liver histology and serum ALT; assay type: in vivo
Description: Alanine aminotransferase (ALT) aspartate aminotransferase (AST) and bilirubin were determined in serum samples using the Selectra Junior SpinLab 100 analyzer (Vital Scientific) and the SpinReact reagents according to manufacturer's protocols.
Paraffin-embedded liver samples were sectioned, dewaxed, and hydrated. Immunohistochemistry (IHC) was performed using an anti-MCJ antibody and nuclei were counter-stained with hematoxylin. Quantification of staining area of each sample was analyzed using the Frida software and represented as the % of the stained area relative to the total area (power field). Ten fields per sample were pictured and analyzed. For liver histology, liver sections from paraffin-embedded tissue were stained with hematoxylin and eoxin (H&E staining). Frida software was used for quantification.
as §2

wild-type hepatocytes = assay: Protection of wild-type hepatocytes from acetaminophen toxic injury by siRNA for MCJ; assay type: cell-based

h-siMCJ: human siRNA sequence gaagatttcaactectagat (as printed), double stranded RNA oligo (GAAGATTTCAACTCCTAGCTT; listed as DNA, chemistry not given here; listed as Homo sapiens)
levels of CoxIV (another mitochondrial protein) (CoxIV): not affecting the levels of CoxIV
MCJ protein expression (MCJ [1]): sufficient to knockdown MCJ protein expression

CC(=O)N[C@@H](CS)C(=O)O [NAC, N-acetylcysteine]
hepatoprotective effect when given after 8 h ([2]; more than 8 h after uptake of acetaminophen): minimal to known
time after uptake of acetaminophen within which administration has a hepatoprotective effect ([2]; patients with acute hepatic failure due to overdose of acetaminophen): ≤ 8 h

siMCJ: double strand RNA oligos (see for example SEQ ID NO: 22, mouse siRNA sequence gcgagaggctagtcttatt), given i.v. with Invivofectamine 3.0 (GCGAGAGGCTAGTCTTATT; Invivofectamine 3.0 formulation, further chemistry not given here; listed as Mus musculus)
levels of endogenous MCJ in the liver (MCJ [3]; 24 h after single i.v. dose of siMCJ 1.7 mg/Kg with invivofectamine, wild-type mice, FIG. 7): almost undetectable
restoration of MCJ levels in liver (MCJ [3]; after 9 days of administration, single i.v. dose of siMCJ, FIG. 7): not a full restoration of MCJ levels
levels of MCJ in the liver of APAP-mice (MCJ [3]; siMCJ i.v. 20 h before acetaminophen 360 mg/Kg i.p., harvested 24 h after acetaminophen, relative to APAP-mice without siMCJ, FIG. 8A): markedly reduced
levels of MCJ in the liver (MCJ [3]; siMCJ i.v. 24 h after acetaminophen 360 mg/Kg i.p., harvested 48 h after acetaminophen, FIG. 9A): almost undetectable
time for which levels of MCJ in liver remained very low (MCJ [3]; single i.v. dose of siMCJ 1.7 mg/Kg with invivofectamine, FIG. 7): at least 7 days
areas of tissue damage in liver sections (H&E histology) (wild-type mice; siMCJ i.v. 20 h before acetaminophen 360 mg/Kg i.p., harvested 24 h after acetaminophen, FIG. 8B): almost not detected
quantification of the damage area in the livers (wild-type mice; siMCJ i.v. 20 h before acetaminophen, n=5, p<0.05, FIG. 8C): protective effect
levels of ALT in serum (wild-type mice; siMCJ i.v. 24 h after acetaminophen 360 mg/Kg i.p., harvested 48 h after acetaminophen, p<0.01 vs control mice, FIG. 9B): drastically lower
protection from toxic injury caused by acetaminophen (wild-type hepatocytes): protected wild-type hepatocytes from the development of toxic injury
